Assay results: the supplement of paper PMC7017272
± gives the standard deviation of the averaged measurements.

Experiments:
Conditions in all cases: treatment time: 3 days
[1] = system: UT-SCC-40; test: maximal % inhibition of viability relative to DMSO; higher = stronger effect
Experimental: (§1)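 HNSCC cell lines (500 cells/well, 384-well) were cultured on plastic, on top of (2D) or embedded (3D) in Matrigel or human leiomyoma matrix Myogel (500 ug/mL; Myogel 3D mixed with rat collagen I). Cells were treated for 3 days with 5 ten-fold concentrations of each drug, and viability was read by CellTiter-Glo. Viability was normalised to DMSO and benzethonium chloride controls and fitted with the FIMM DSRT pipeline to give IC50 (nM), maximal % inhibition and DSS. Suffixes _1/_2/_3 are replicates. Only inhibition-mode (IC50) fits are kept.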

[2] = system: UT-SCC-81; test: as above
Experimental: as §1

[3] = system: UT-SCC-14; test: as above
Experimental: as §1

[4] = system: UT-SCC-42A; test: as above
Experimental: as §1

[5] = system: UT-SCC-8; test: as above
Experimental: as §1

[6] = system: UT-SCC-106A; test: as above
Experimental: as §1

[7] = system: UT-SCC-42B; test: as above
Experimental: as §1

[8] = system: UT-SCC-24B; test: as above
Experimental: as §1

[9] = system: UT-SCC-44; test: as above
Experimental: as §1

[10] = system: UT-SCC-73; test: as above
Experimental: as §1

[11] = system: UT-SCC-28; test: as above
Experimental: as §1

[12] = system: UT-SCC-24A; test: drug sensitivity score (DSS); higher = more sensitive
Experimental: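 HNSCC cell lines (500 cells/well, 384-well) were cultured on plastic, on top of (2D) or embedded (3D) in Matrigel or human leiomyoma matrix Myogel (500 ug/mL; Myogel 3D mixed with rat collagen I). Cells were treated for 3 days with 5 ten-fold concentrations of each drug, and viability was read by CellTiter-Glo. Suffixes _1/_2/_3 on drug names are replicates.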

[13] = system: UT-SCC-14; test: drug sensitivity score (DSS); higher = more sensitive; extreme values may be limits of the assay
Outline: (§2)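 Using 384-well plates, 500 cells/well of HPV-negative HNSCC cell lines were grown on plastic, on 500 µg/mL Matrigel or Myogel coatings, or embedded in Matrigel or Myogel with rat collagen I. They were treated with compounds at five 10-fold concentrations for 3 days, and luminescence from CellTiter-Glo 2.0 was normalised to vehicle (0.1% DMSO) and cell-killing control wells. IC50, maximal inhibition and drug sensitivity score were derived from percent-inhibition dose–response curves in the FIMM pipeline.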

[14] = system: UT-SCC-42A; test: as above
Outline: as §2

[15] = system: UT-SCC-106A; test: as above
Outline: as §2

[16] = system: UT-SCC-42B; test: as above
Outline: as §2

[17] = system: UT-SCC-24A; test: relative IC50 (midpoint of the fitted curve; maximal inhibition may be below 50%); higher = less potent
Experimental: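 HNSCC cell lines (500 cells/well, 384-well) were cultured on plastic, on top of (2D) or embedded (3D) in Matrigel or human leiomyoma matrix Myogel (500 ug/mL; Myogel 3D mixed with rat collagen I). Cells were treated for 3 days with 5 ten-fold concentrations of each drug, and viability was read by CellTiter-Glo. Viability was normalised to DMSO (0% inhibition) and 100 uM benzethonium chloride (100% inhibition) controls and fitted with the FIMM DSRT pipeline to give IC50 (nM), maximal % inhibition and the drug sensitivity score (DSS). Suffixes _1/_2/_3 on drug names are replicates.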

[18] = culture condition: embedded in Matrigel
[19] = culture condition: embedded in Myogel + collagen I
[20] = culture condition: on top of Matrigel
[21] = culture condition: on top of Myogel
[22] = culture condition: plastic 2D (no matrix)

With `COc1cc(F)c(F)c(Nc2ccc(I)cc2F)c1NS(=O)(=O)C1(C[C@H](O)CO)CC1` [Refametinib] as the molecule, how does the “maximal % inhibition of viability” value [1, 18] read?
The value was 80.9 ± 2.5%.

What about the “maximal % inhibition of viability” value [1, 19] of the same molecule?
Its value is 76 ± 7.2%.

And the “maximal % inhibition of viability” value [1, 20]?
Its value is 75.9 ± 1.6%.

What about the “maximal % inhibition of viability” value [1, 21] of the same molecule?
Its value is 61.23 ± 0.5%.

And the “maximal % inhibition of viability” value [1, 22]?
Its value is 63.2 ± 2.9%.

And the “maximal % inhibition of viability” value [2, 18]?
Its value is 87.7 ± 0.46%.

What about the “maximal % inhibition of viability” value [2, 19] of the same molecule?
The value was 50.7 ± 1.9%.

And the “maximal % inhibition of viability” value [2, 20]?
The value was 82.7 ± 0.99%.

And the “maximal % inhibition of viability” value [2, 21]?
Its value is 52 ± 3.4%.

And the “maximal % inhibition of viability” value [2, 22]?
The value was 73.1 ± 2.5%.

And the “maximal % inhibition of viability” value [3, 18]?
The value was 62.5 ± 5.1%.

And the “maximal % inhibition of viability” value [3, 19]?
Its value is 57 ± 5.9%.

What about the “maximal % inhibition of viability” value [3, 20] of the same molecule?
The value was 52.9 ± 9.5%.

And the “maximal % inhibition of viability” value [3, 21]?
The value was 52.2 ± 5.8%.

And the “maximal % inhibition of viability” value [3, 22]?
The value was 47.7 ± 7.5%.

What about the “maximal % inhibition of viability” value [4, 18] of the same molecule?
Its value is 61.2 ± 1.2%.

And the “maximal % inhibition of viability” value [4, 19]?
Its value is 42.4 ± 6.9%.

And the “maximal % inhibition of viability” value [4, 20]?
The value was 61.9 ± 0.94%.

What about the “maximal % inhibition of viability” value [4, 21] of the same molecule?
The value was 48.8 ± 5.2%.

And the “maximal % inhibition of viability” value [4, 22]?
Its value is 58.8 ± 3.1%.

And the “maximal % inhibition of viability” value [5, 18]?
Its value is 88.8 ± 1.6%.

And the “maximal % inhibition of viability” value [5, 19]?
Its value is 74.1 ± 13%.

And the “maximal % inhibition of viability” value [5, 20]?
Its value is 81.7 ± 2.5%.

What about the “maximal % inhibition of viability” value [5, 21] of the same molecule?
Its value is 73 ± 5.1%.

What about the “maximal % inhibition of viability” value [5, 22] of the same molecule?
The value was 80.2 ± 3.9%.

And the “maximal % inhibition of viability” value [6, 18]?
Its value is 53.7 ± 4.7%.

What about the “maximal % inhibition of viability” value [6, 19] of the same molecule?
The value was 36.7 ± 3.4%.

What about the “maximal % inhibition of viability” value [6, 20] of the same molecule?
The value was 66 ± 2.5%.

And the “maximal % inhibition of viability” value [6, 21]?
Its value is 43.4 ± 3.1%.

What about the “maximal % inhibition of viability” value [6, 22] of the same molecule?
The value was 67.33 ± 0.64%.

And the “maximal % inhibition of viability” value [7, 18]?
The value was 79.1 ± 7.6%.

And the “maximal % inhibition of viability” value [7, 20]?
The value was 64.1 ± 4.8%.

What about the “maximal % inhibition of viability” value [7, 21] of the same molecule?
Its value is 46.5 ± 1.5%.

What about the “maximal % inhibition of viability” value [7, 22] of the same molecule?
Its value is 47.5 ± 2.6%.

And the “maximal % inhibition of viability” value [8, 18]?
Its value is 72.4 ± 3.9%.

And the “maximal % inhibition of viability” value [8, 19]?
Its value is 86.3 ± 3.8%.

And the “maximal % inhibition of viability” value [8, 20]?
Its value is 72.9 ± 4.8%.

And the “maximal % inhibition of viability” value [8, 21]?
The value was 72.2 ± 2.3%.

And the “maximal % inhibition of viability” value [8, 22]?
Its value is 84 ± 2.2%.

What about the “maximal % inhibition of viability” value [9, 18] of the same molecule?
The value was 90.4 ± 2.6%.

What about the “maximal % inhibition of viability” value [9, 19] of the same molecule?
Its value is 55.1 ± 5%.

And the “maximal % inhibition of viability” value [9, 20]?
The value was 73.2 ± 7%.

What about the “maximal % inhibition of viability” value [9, 21] of the same molecule?
The value was 56.9 ± 0.9%.

What about the “maximal % inhibition of viability” value [9, 22] of the same molecule?
Its value is 62.2 ± 4.4%.

And the “maximal % inhibition of viability” value [10, 18]?
The value was 85.7 ± 3.9%.

And the “maximal % inhibition of viability” value [10, 19]?
Its value is 73.4 ± 14%.

And the “maximal % inhibition of viability” value [10, 20]?
The value was 81.8 ± 1.5%.

What about the “maximal % inhibition of viability” value [10, 21] of the same molecule?
Its value is 72 ± 2.7%.

What about the “maximal % inhibition of viability” value [10, 22] of the same molecule?
Its value is 75.8 ± 3.1%.

What about the “maximal % inhibition of viability” value [11, 18] of the same molecule?
The value was 49.8 ± 4%.

And the “maximal % inhibition of viability” value [11, 19]?
Its value is 33 ± 8.1%.

What about the “maximal % inhibition of viability” value [11, 20] of the same molecule?
The value was 45.1 ± 8.6%.

And the “maximal % inhibition of viability” value [11, 22]?
The value was 23.7 ± 2%.

And the drug sensitivity score [12, 18]?
Its drug sensitivity score is 34.3 ± 1.1 DSS.

And the drug sensitivity score [12, 19]?
The drug sensitivity score was 17.3 ± 2.2 DSS.

What about the drug sensitivity score [12, 20] of the same molecule?
The drug sensitivity score was 29.2 ± 1.3 DSS.

And the drug sensitivity score [12, 21]?
Its drug sensitivity score is 13 ± 1.6 DSS.

What about the drug sensitivity score [12, 22] of the same molecule?
The drug sensitivity score was 26.7 ± 0.62 DSS.

What about the drug sensitivity score [13, 18] of the same molecule?
Its drug sensitivity score is 13.5 ± 4.8 DSS.

And the drug sensitivity score [13, 19]?
The drug sensitivity score was 9.87 ± 1.7 DSS.

What about the drug sensitivity score [13, 20] of the same molecule?
Its drug sensitivity score is 10.9 ± 3.1 DSS.

And the drug sensitivity score [13, 21]?
Its drug sensitivity score is 8.53 ± 0.47 DSS.

What about the drug sensitivity score [13, 22] of the same molecule?
The drug sensitivity score was 5.8 ± 2.8 DSS.

What about the drug sensitivity score [14, 18] of the same molecule?
Its drug sensitivity score is 18 ± 1.1 DSS.

And the drug sensitivity score [14, 19]?
The drug sensitivity score was 8.7 ± 1.7 DSS.

What about the drug sensitivity score [14, 20] of the same molecule?
The drug sensitivity score was 19.2 ± 0.8 DSS.

What about the drug sensitivity score [14, 21] of the same molecule?
Its drug sensitivity score is 11.5 ± 1.4 DSS.

What about the drug sensitivity score [14, 22] of the same molecule?
The drug sensitivity score was 15.3 ± 0.1 DSS.

And the drug sensitivity score [15, 18]?
The drug sensitivity score was 17.8 ± 1.8 DSS.

And the drug sensitivity score [15, 19]?
Its drug sensitivity score is 3.97 ± 0.67 DSS.

What about the drug sensitivity score [15, 20] of the same molecule?
Its drug sensitivity score is 21.6 ± 1.2 DSS.

And the drug sensitivity score [15, 21]?
Its drug sensitivity score is 5.3 ± 0.82 DSS.

What about the drug sensitivity score [15, 22] of the same molecule?
The drug sensitivity score was 20.4 ± 0.42 DSS.

And the drug sensitivity score [16, 18]?
The drug sensitivity score was 25.5 ± 1.9 DSS.

And the drug sensitivity score [16, 20]?
Its drug sensitivity score is 15.7 ± 1.7 DSS.

What about the drug sensitivity score [16, 21] of the same molecule?
Its drug sensitivity score is 5.27 ± 0.5 DSS.

What about the drug sensitivity score [16, 22] of the same molecule?
The drug sensitivity score was 8.27 ± 1.1 DSS.

And the “relative IC50” value [17, 18]?
Its value is 3.14 nM.

What about the “relative IC50” value [17, 20] of the same molecule?
Its value is 8.76 nM.

And the “relative IC50” value [17, 22]?
Its value is 9.97 nM.
